From patent US9475841B2, “Melanoma antigen peptide and uses thereof” (INSERM (INSTITUT NATIONAL DE LA SANTE ET DE LA RECHERCHE …, priority 2012, dated 2016)

Key:
[1] = system: MELOE-1 specific CD4 T cells; assay: MELOE-1 CD4+ T cell responses in PBMC from melanoma patients: restimulation with peptides, CD4/IFN-γ (Th1) and CD4/IL4 (Th2) staining; assay type: cell-based, human; conditions: for mean % of cytokine producing CD4 T cells, in positive microcultures (IFN-γ): Th1; for Th1 responses (IFN-γ positive microcultures) / Th2 responses (IL4 positive microcultures): positive/tested microcultures; for mean % of cytokine producing CD4 T cells, in positive microcultures (IL4): Th2
Method: PBMC from melanoma patients were stimulated with 10 μM of MELOE-1. After 14 days, the presence of CD4 T cells specific for the different regions of MELOE-1 was assessed by restimulating cells with MELOE-12-21, MELOE-111-30 and MELOE-122-46 peptides, followed by CD4/IFN-γ double staining for the detection of Th1 responses, and by CD4/IL4 double staining for Th2 responses. Between brackets is indicated the mean % of cytokine producing CD4 T cells, in positive microcultures.
(§1) PBMC from healthy donors or melanoma patients (2·10^5 cells/well) were cultured for 14 days with 10 μM of MELOE-1 whole antigen (46 amino acids) in RPMI medium supplemented with 8% HS, 50 IU/ml of rIL-2 (Chiron, France) and L-Glutamin, in 96-well multiplates. Microcultures were then restimulated individually with each overlapping peptide (MELOE-12-21, MELOE-111-30, MELOE-118-37, MELOE-12646 or MELOE-122-46 for melanoma patients) in the presence of 10 μg/mL brefeldin A for 5 hours and the percentage of CD4^+ specific T cells was assessed by TNF-α, IFN-γ or IL-4 intracellular staining. A negative control without peptide was included in all experiments.
In order to confirm the immunogenicity of each MELOE-1 regions in melanoma patients, we stimulated melanoma patients PBMC with the MELOE-1 whole protein, and tested the reactivity of stimulated lymphocytes towards the three most immunogenic regions: 2-21, 11-30, and 22-46. For this study, instead of challenging microcultures with the 18-37 peptide, that appeared poorly immunogenic, we extended the C-terminus region from 26-46 to 22-46, in order to also detect responses to our previously described HLA-DR11-restricted epitope (24-37). […] We tested the induction of CD4 specific responses from MELOE-1 stimulated PBMC of […] melanoma patients. We documented CD4 responses specific for the central region of MELOE-1 (11-30) for 7/9 patients, whereas responses specific for MELOE-12-21 and MELOE-122-46 were respectively detected in 4/9 and 5/9 patients (Table III). These responses were mainly Th1 responses (IFN-g production) while less frequent Th2 responses specific for the three regions of MELOE-1 were detected in 3/9 patients for MELOE-12-21, 2/9 patients for MELOE-111-30 and 5/9 patients for MELOE-122-46 (Table III). […] Concerning Th2 responses, much less frequent, the C-term region appeared to induce more frequently the growth of IL-4 producing CD4 T cells than the two other regions (FIG. 2A). […] In summary, stimulation of patient's PBMC with MELOE-1 induced Th1 responses specific for diverse epitopes located all along the protein sequence, and among the different regions, the central region (11-30) and the C-term region (22-46) appeared to be especially immunogenic in term of frequency of responses.

[2] = system: MELOE-1 specific CD4+ T cells; assay: MELOE-1 CD4+ T cell responses in PBMC from healthy donors: restimulation of microcultures with overlapping peptides, CD4/TNF-α staining; assay type: cell-based, human; conditions: for Microcultures containing MELOE-1 specific CD4+ T cells (TNF-α production): positive/tested microcultures
Method: PBMC from healthy donors were stimulated with 10 μM of MELOE-1. After 14 days, the presence of CD4 T cells specific for the different regions of MELOE-1 was assessed by restimulating cells with MELOE-12-21, MELOE-111-30, MELOE-118-37 and MELOE-126-46 peptides, followed by CD4/TNF-α double staining and flow cytometry analysis. Between brackets is indicated the mean % of TNF-α producing CD4 T cells, in positive microcultures. NA: not available.
as §1
Our purpose was to look for the existence of class II helper epitopes all along MELOE-1 sequence (SEQ ID NO:20), in order to document the immunogenicity of the different regions of this melanoma antigen. We stimulated 2·10^7 PBMC from seven healthy donors with MELOE-1 whole antigen and tested, after a 14-day culture period the presence of CD4 T cells specific for each region of the protein. Microcultures were screened for TNFα production by CD4+ T cells, after restimulation with four MELOE-1 derived overlapping peptides (Table I), in an autopresentation assay. […] On the contrary, the central region 18-37, containing an already described DR11-restricted epitope (24-37) located just at the end of this 20-mer peptide (Rogel et al., 2011), induced specific responses in microcultures deriving from only 2/7 donors (HD9 and HD17, both expressing the DR11 element). In these two donors, we detected 6 and 7% of positive microcultures, containing between 0.6 to 3.7% of TNFα producing CD4 T cells.

Sequence: SCVGYPDEATSREQFLPSEG (SCVGYPDEATSREQFLPSEC) [MELOE-12-21]
- Th1 responses, % of tested microcultures ([1]; 576 tested microcultures from melanoma patients, IFN-γ): 3.3%
- patients in which Th2 responses were detected ([1]; melanoma patients, IL4): 3/9
- patients in which CD4 responses specific for the region were detected ([1]; melanoma patients, Table III, Th1 (IFN-γ)): 4/9
- mean % of cytokine producing CD4 T cells, in positive microcultures (IFN-γ) ([1]; patient Pt ≠ 1): (0.7%)
- Th1 responses (IFN-γ positive microcultures) ([1]; patient Pt ≠ 1): 1/48
- Th2 responses (IL4 positive microcultures) ([1]; patient Pt ≠ 1): 0/48
- mean % of cytokine producing CD4 T cells, in positive microcultures (IFN-γ) ([1]; patient Pt ≠ 2): (0.8% ± 0.2)
- Th1 responses (IFN-γ positive microcultures) ([1]; patient Pt ≠ 2): 4/96
- Th2 responses (IL4 positive microcultures) ([1]; patient Pt ≠ 2): 0/96
- Th1 responses (IFN-γ positive microcultures) ([1]; patient Pt ≠ 3 (DPβ1*0201/2001, DQβ1*0303/0501, DRβ1*0101/0701)): 10/96
- mean % of cytokine producing CD4 T cells, in positive microcultures (IFN-γ) ([1]; patient Pt ≠ 3): (1.7% ± 2.9)
- Th2 responses (IL4 positive microcultures) ([1]; patient Pt ≠ 3): 0/96
- mean % of cytokine producing CD4 T cells, in positive microcultures (IL4) ([1]; patient Pt ≠ 4): (0.7%)
- Th1 responses (IFN-γ positive microcultures) ([1]; patient Pt ≠ 4): 0/48
- Th2 responses (IL4 positive microcultures) ([1]; patient Pt ≠ 4): 1/48
- mean % of cytokine producing CD4 T cells, in positive microcultures (IFN-γ) ([1]; patient Pt ≠ 5): (0.6%)
- mean % of cytokine producing CD4 T cells, in positive microcultures (IL4) ([1]; patient Pt ≠ 5): (0.7% ± 0.1)
- Th1 responses (IFN-γ positive microcultures) ([1]; patient Pt ≠ 5): 1/48
- Th2 responses (IL4 positive microcultures) ([1]; patient Pt ≠ 5): 2/48
- Th1 responses (IFN-γ positive microcultures) ([1]; patient Pt ≠ 6): 0/48
- Th2 responses (IL4 positive microcultures) ([1]; patient Pt ≠ 6): 0/48
- Th1 responses (IFN-γ positive microcultures) ([1]; patient Pt ≠ 7): 0/48
- Th2 responses (IL4 positive microcultures) ([1]; patient Pt ≠ 7): 0/48
- Th1 responses (IFN-γ positive microcultures) ([1]; patient Pt ≠ 8): 0/48
- Th2 responses (IL4 positive microcultures) ([1]; patient Pt ≠ 8): 0/48
- mean % of cytokine producing CD4 T cells, in positive microcultures (IL4) ([1]; patient Pt ≠ 9): (0.6%)
- Th1 responses (IFN-γ positive microcultures) ([1]; patient Pt ≠ 9): 0/48
- Th2 responses (IL4 positive microcultures) ([1]; patient Pt ≠ 9): 1/48
- mean % of TNF-α producing CD4 T cells, in positive microcultures ([2]; donor HD9): (1.4% ± 0.6)
- Microcultures containing MELOE-1 specific CD4+ T cells (TNF-α production) ([2]; donor HD9 (DPβ1*0902/1501, DQβ1*0301, DRβ1*1104/1201)): 9/96
- mean % of TNF-α producing CD4 T cells, in positive microcultures ([2]; donor HD17): (3.2% ± 1.9)
- Microcultures containing MELOE-1 specific CD4+ T cells (TNF-α production) ([2]; donor HD17 (DPβ1*0401/0301, DQβ1*0301/0603, DRβ1*1101/1301)): 6/96
- mean % of TNF-α producing CD4 T cells, in positive microcultures ([2]; donor HD22): (1%)
- Microcultures containing MELOE-1 specific CD4+ T cells (TNF-α production) ([2]; donor HD22 (DPβ1*0401/1101, DQβ1*0202, DRβ1*0701)): 1/96
- mean % of TNF-α producing CD4 T cells, in positive microcultures ([2]; donor HD24): (1.3% ± 0.8)
- Microcultures containing MELOE-1 specific CD4+ T cells (TNF-α production) ([2]; donor HD24 (DPβ1*0401/0101, DQβ1*0501/0602, DRβ1*0101/1501)): 3/96
- mean % of TNF-α producing CD4 T cells, in positive microcultures ([2]; donor HD25): (0.6% ± 0.1)
- Microcultures containing MELOE-1 specific CD4+ T cells (TNF-α production) ([2]; donor HD25 (DPβ1*0401/0402, DQβ1*0201, DRβ1*0301)): 3/96
- Microcultures containing MELOE-1 specific CD4+ T cells (TNF-α production) ([2]; donor HD27 (DQβ1*501/0201, DRβ1*0101/0301)): 0/96
- mean % of TNF-α producing CD4 T cells, in positive microcultures ([2]; donor HD28): (2.7% ± 1.2)
- Microcultures containing MELOE-1 specific CD4+ T cells (TNF-α production) ([2]; donor HD28 (DRβ1*0301)): 30/48
- % of positive microcultures ([2]; healthy donor HD28): 62%
- donors in which CD4 responses against the region were detected ([2]; seven healthy donors): 6/7
